Source: ChEMBL document CHEMBL1201862, “PubChem BioAssay data set” (2004)
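Five compound concentrations were applied to cells in 96-well plates for 48 hours; endpoints were derived by simple linear interpolation of the resulting dose-response curve. The concentration for 50% growth inhibition is given as GI50.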 The source made the active and inactive calls. No stated cut-off is given here; in the data, active = GI50 up to about 1.1 µM and inactive = higher.

Experiments:
Assay in all cases: growth of human tumour cells (NCI), 48 h
[1] = test system: A549
[2] = test system: EKVX
[3] = test system: HOP-62
[4] = test system: IGROV-1
[5] = test system: LOX IMVI
[6] = test system: NCI-H460
[7] = test system: NCI-H522
[8] = test system: OVCAR-3
[9] = test system: OVCAR-5
[10] = test system: SF-268
[11] = test system: SK-OV-3
[12] = test system: SN12C
[13] = test system: SNB-19
[14] = test system: UACC-257
[15] = test system: UO-31
[16] = test system: CAKI-1
[17] = test system: HCC 2998
[18] = test system: HL-60
[19] = test system: TK-10
[20] = test system: 786-0

Question: How did the GI50 [1] turn out when `COc1cccc(C2c3cc4c(cc3OC(N3CCOCC3)C2C)OCO4)c1` (stereo not drawn) was run?
Answer: 12.9 µM (inactive)

Question: What about the GI50 [2] of the same compound?
Answer: 26.7 µM (inactive)

Question: And the GI50 [3]?
Answer: 16.2 µM (inactive)

Question: And the GI50 [4]?
Answer: 15 µM (inactive)

Question: What about the GI50 [5] of the same compound?
Answer: 5.28 µM (inactive)

Question: And the GI50 [6]?
Answer: 14.2 µM (inactive)

Question: And the GI50 [7]?
Answer: 8.24 µM (inactive)

Question: And the GI50 [8]?
Answer: 7.74 µM (inactive)

Question: And the GI50 [9]?
Answer: 27 µM (inactive)

Question: And the GI50 [10]?
Answer: 16.7 µM (inactive)

Question: And the GI50 [11]?
Answer: 17.9 µM (inactive)

Question: What about the GI50 [12] of the same compound?
Answer: 24.3 µM (inactive)

Question: What about the GI50 [13] of the same compound?
Answer: 20.5 µM (inactive)

Question: What about the GI50 [14] of the same compound?
Answer: 14.8 µM (inactive)

Question: And the GI50 [15]?
Answer: 12.8 µM (inactive)

Question: `COc1ccc(-c2cs/c(=N\c3ccccc3)n2CCCN(C)C)cc1` was tested. Which GI50 [1] did it give?
Answer: 17.1 µM (inactive)

Question: And the GI50 [16]?
Answer: 71.9 µM (inactive)

Question: And the GI50 [17]?
Answer: 16.3 µM (inactive)

Question: And the GI50 [18]?
Answer: 5.58 µM (inactive)

Question: And the GI50 [3]?
Answer: 13.6 µM (inactive)

Question: And the GI50 [6]?
Answer: 23.8 µM (inactive)

Question: And the GI50 [8]?
Answer: 17.1 µM (inactive)

Question: And the GI50 [9]?
Answer: 14.8 µM (inactive)

Question: What about the GI50 [10] of the same compound?
Answer: 24.3 µM (inactive)

Question: And the GI50 [11]?
Answer: 15.6 µM (inactive)

Question: And the GI50 [12]?
Answer: 33.7 µM (inactive)

Question: And the GI50 [13]?
Answer: 19.2 µM (inactive)

Question: What about the GI50 [19] of the same compound?
Answer: 14.2 µM (inactive)

Question: What about the GI50 [14] of the same compound?
Answer: 18.9 µM (inactive)

Question: What about the GI50 [15] of the same compound?
Answer: 12.4 µM (inactive)

Question: Which results are given for `CCN(CC)CCO[Si](OCCN(CC)CC)(OCCN(CC)CC)OCCN(CC)CC`?
Answer: GI50 [1]: > 100 µM (inactive); GI50 [16]: > 100 µM (inactive); GI50 [2]: > 100 µM (inactive); GI50 [17]: > 100 µM (inactive); GI50 [4]: > 100 µM (inactive); GI50 [5]: > 100 µM (inactive); GI50 [6]: > 100 µM (inactive); GI50 [8]: > 100 µM (inactive); GI50 [9]: > 100 µM (inactive); GI50 [11]: > 100 µM (inactive); GI50 [12]: > 100 µM (inactive); GI50 [13]: > 100 µM (inactive); GI50 [19]: > 100 µM (inactive); GI50 [14]: > 100 µM (inactive); GI50 [15]: > 100 µM (inactive)

Question: Which GI50 [20] does the source give for `COc1ccc2c(c1)OC(c1ccccc1O)CC2=O` (stereo not drawn) here?
Answer: 40.5 µM (inactive)

Question: What about the GI50 [1] of the same compound?
Answer: 40.6 µM (inactive)

Question: And the GI50 [16]?
Answer: 51.5 µM (inactive)

Question: What about the GI50 [2] of the same compound?
Answer: 96.8 µM (inactive)

Question: And the GI50 [17]?
Answer: 48.9 µM (inactive)

Question: And the GI50 [3]?
Answer: 41.4 µM (inactive)

Question: And the GI50 [6]?
Answer: 50.1 µM (inactive)

Question: What about the GI50 [7] of the same compound?
Answer: 27.9 µM (inactive)

Question: What about the GI50 [8] of the same compound?
Answer: 28.1 µM (inactive)

Question: And the GI50 [9]?
Answer: > 100 µM (inactive)

Question: And the GI50 [10]?
Answer: 29.2 µM (inactive)

Question: What about the GI50 [12] of the same compound?
Answer: 41.5 µM (inactive)

Question: What about the GI50 [13] of the same compound?
Answer: > 100 µM (inactive)

Question: What about the GI50 [19] of the same compound?
Answer: > 100 µM (inactive)

Question: And the GI50 [14]?
Answer: 39.5 µM (inactive)

Question: And the GI50 [15]?
Answer: 18.1 µM (inactive)

Question: How did the GI50 [20] turn out when `C=CCCON(C(=O)OC(C)(C)C)c1ccccc1` was run?
Answer: 74 µM (inactive)

Question: And the GI50 [1]?
Answer: > 100 µM (inactive)

Question: What about the GI50 [16] of the same compound?
Answer: > 100 µM (inactive)

Question: And the GI50 [2]?
Answer: > 100 µM (inactive)

Question: What about the GI50 [18] of the same compound?
Answer: 12.4 µM (inactive)

Question: And the GI50 [3]?
Answer: > 100 µM (inactive)

Question: And the GI50 [4]?
Answer: > 100 µM (inactive)

Question: And the GI50 [5]?
Answer: > 100 µM (inactive)

Question: What about the GI50 [6] of the same compound?
Answer: > 100 µM (inactive)

Question: And the GI50 [7]?
Answer: 43.3 µM (inactive)

Question: What about the GI50 [8] of the same compound?
Answer: > 100 µM (inactive)

Question: And the GI50 [9]?
Answer: > 100 µM (inactive)

Question: What about the GI50 [10] of the same compound?
Answer: > 100 µM (inactive)

Question: And the GI50 [11]?
Answer: > 100 µM (inactive)

Question: And the GI50 [12]?
Answer: > 100 µM (inactive)

Question: And the GI50 [13]?
Answer: > 100 µM (inactive)

Question: And the GI50 [19]?
Answer: > 100 µM (inactive)

Question: And the GI50 [14]?
Answer: > 100 µM (inactive)

Question: And the GI50 [15]?
Answer: > 100 µM (inactive)

Question: `CCOC(=O)c1sc2nc(SC)nc(N3CCCCC3)c2c1N` was tested. Which GI50 [20] did it give?
Answer: > 100 µM (inactive)

Question: And the GI50 [1]?
Answer: > 100 µM (inactive)

Question: What about the GI50 [16] of the same compound?
Answer: > 100 µM (inactive)

Question: What about the GI50 [17] of the same compound?
Answer: > 100 µM (inactive)

Question: And the GI50 [3]?
Answer: > 100 µM (inactive)

Question: And the GI50 [4]?
Answer: > 100 µM (inactive)

Question: And the GI50 [5]?
Answer: > 100 µM (inactive)

Question: What about the GI50 [6] of the same compound?
Answer: > 100 µM (inactive)

Question: And the GI50 [7]?
Answer: > 100 µM (inactive)

Question: What about the GI50 [8] of the same compound?
Answer: > 100 µM (inactive)

Question: And the GI50 [9]?
Answer: > 100 µM (inactive)

Question: And the GI50 [10]?
Answer: > 100 µM (inactive)

Question: And the GI50 [11]?
Answer: > 100 µM (inactive)

Question: What about the GI50 [12] of the same compound?
Answer: > 100 µM (inactive)

Question: What about the GI50 [13] of the same compound?
Answer: > 100 µM (inactive)

Question: And the GI50 [19]?
Answer: > 100 µM (inactive)

Question: What about the GI50 [14] of the same compound?
Answer: 5.07 µM (inactive)

Question: What about the GI50 [15] of the same compound?
Answer: > 100 µM (inactive)

Question: With `CCc1ncc(C(C)(O)c2ccccc2)n1Cc1ccccc1` (stereo not drawn) as the compound, how does the GI50 [1] read?
Answer: 35.5 µM (inactive)

Question: And the GI50 [16]?
Answer: 35.4 µM (inactive)

Question: And the GI50 [2]?
Answer: 56.2 µM (inactive)

Question: And the GI50 [3]?
Answer: < 0.01 µM (active)

Question: What about the GI50 [4] of the same compound?
Answer: 42.4 µM (inactive)

Question: And the GI50 [5]?
Answer: 29.8 µM (inactive)

Question: And the GI50 [6]?
Answer: 54.7 µM (inactive)

Question: And the GI50 [7]?
Answer: 42.1 µM (inactive)

Question: And the GI50 [8]?
Answer: 40.6 µM (inactive)

Question: And the GI50 [9]?
Answer: 98.6 µM (inactive)

Question: What about the GI50 [10] of the same compound?
Answer: 99.8 µM (inactive)

Question: And the GI50 [11]?
Answer: 67.6 µM (inactive)

Question: What about the GI50 [12] of the same compound?
Answer: 21.7 µM (inactive)

Question: And the GI50 [13]?
Answer: 42.4 µM (inactive)

Question: What about the GI50 [19] of the same compound?
Answer: 33.5 µM (inactive)

Question: What about the GI50 [14] of the same compound?
Answer: 29.4 µM (inactive)

Question: And the GI50 [15]?
Answer: 55.1 µM (inactive)

Question: `Cn1c(=O)c(Cl)c(N=[N+]=[N-])c2ccccc21` was tested. Which GI50 [1] did it give?
Answer: 94.4 µM (inactive)

Question: What about the GI50 [16] of the same compound?
Answer: 78.7 µM (inactive)

Question: What about the GI50 [2] of the same compound?
Answer: 22.1 µM (inactive)

Question: What about the GI50 [17] of the same compound?
Answer: > 100 µM (inactive)

Question: And the GI50 [3]?
Answer: > 100 µM (inactive)

Question: And the GI50 [4]?
Answer: > 100 µM (inactive)

Question: What about the GI50 [5] of the same compound?
Answer: 55.7 µM (inactive)

Question: What about the GI50 [6] of the same compound?
Answer: > 100 µM (inactive)

Question: What about the GI50 [7] of the same compound?
Answer: 74.3 µM (inactive)

Question: And the GI50 [8]?
Answer: 33.3 µM (inactive)

Question: What about the GI50 [9] of the same compound?
Answer: > 100 µM (inactive)

Question: And the GI50 [10]?
Answer: > 100 µM (inactive)

Question: And the GI50 [11]?
Answer: > 100 µM (inactive)

Question: And the GI50 [12]?
Answer: 56.5 µM (inactive)

Question: And the GI50 [13]?
Answer: > 100 µM (inactive)

Question: And the GI50 [19]?
Answer: > 100 µM (inactive)

Question: And the GI50 [14]?
Answer: > 100 µM (inactive)

Question: And the GI50 [15]?
Answer: > 100 µM (inactive)
